Values after ≈ are worked out from the molar mass of the structure shown. Values belong to the compound of their own block, whether it stands above or below them.
Legend:
Dissolution study = format: physicochemical
From the text: “FeSSIF” means fed state simulated intestinal fluid prepared by a recipe known in the art. This media is used to simulate gastrointestinal conditions. FeSSIF is the dissolution media that the powders produced in the following examples are dispersed into to quantitate the amount of drug dissolved as a function of time.
(§1) Ethyl acetate/water or dichloromethane/water mixtures were used to produce o/w emulsions for SFL micronization, and a tetrahydrofuran/water mixture was used to formulate the feed solutions. Micronized SFL powders were characterized by x-ray diffraction, surface area, scanning and transmission electron microscopy, contact angle and dissolution (SLS 0.75%/Tris 1.21% media).

[1] = cited from earlier work
[2] = Particle size distribution of dry powders (time-of-flight); format: physicochemical
Protocol: (§2) An aliquot of 0.1 g bovine insulin was dissolved in 20 ml HCl (pH=2), the solution was then titrated by 0.1 N NaOH to pH 7.4. The feed solution was then atomized using an ISCO pump by spray freezing into liquid nitrogen. The nozzle used was polyetheretherketone tubing with a diameter of 63.5 μm. The flow rate was 14 ml/min at 4000 psi. The frozen particles were collected and dried in a tray lyophilizer.
The span index is used to described the polydispersity in a given particle size distribution and is defined as (D90-D10)/D50, where D10, D50, and D90 are the respective particle size at 10, 50, 90 percent cumulative percent undersize.

[3] = Chemical stability of insulin: A-21 desamido insulin level (RP-HPLC); format: physicochemical; details: for percentage of A-21 desamido in the samples: stored at −4° C.
Protocol: as §2, with “lyophilizer. The resulting particles were highly porous. […] The SFL process decreased the level of covalent insulin dimer (Table 3). The mean particle size diameter as determined by time-of-flight measurement was 5.06 microns. SEM photographs reveal that the particle is an aggregate composed of small domains of insulin.” for “lyophilizer.”
(§3) The SFL insulin powder was prepared according to the procedure outlined in Example 1 with same formulation. The SFL insulin powder was stored at −4° C. The samples were taken out at 6, 12 and 24 weeks.
(§4) The products were characterized by different techniques. […] The median aerodynamic particle size was 5.06 μm.

[4] = Insulin aggregation: covalent insulin dimer (size exclusion HPLC); format: physicochemical; details: for percentage of covalent insulin dimer in the samples: stored at −4° C.
Protocol: as §2, with “lyophilizer. The resulting particles were highly porous. […] The SFL process decreased the level of covalent insulin dimer (Table 3). The mean particle size diameter as determined by time-of-flight measurement was 5.06 microns. SEM photographs reveal that the particle is an aggregate composed of small domains of insulin.” for “lyophilizer.”
as §3, §4

[5] = Contact angle against dissolution media (SLS/Tris); format: physicochemical
From the text: as §1

[6] = BET specific surface area; format: physicochemical
From the text: The microparticles obtained were discrete and compact with almost spherical shape. […] The protein/polymer ratio has a strong effect on the entrapment efficiency and loading degree of the incorporated protein. The entrapment efficiency was high for all investigated biodegradable polymers. High polymer concentration yielded high entrapment efficiency for all observed biodegradable polymers and is illustrated at FIG. 6. Scanning Electron Micrographs (SEM) were taken of microparticles prepared by the following conditions: […] An adsorption isotherm derived by S. Brunaure, P. H. Emmett, and E.

CBZ dissolved in water (Dissolution study; water, within 10 minutes): about 4% | Span Index ([2]; (D90-D10)/D50): 2.94 | D10 (μm) ([2]; time-of-flight, Table 10): 15.56 μm | D50 (μm) ([2]; time-of-flight, Table 10): 39.70 μm | D90 (μm) ([2]; time-of-flight, Table 10): 132.33 μm | mean particle diameter ([2]; time-of-flight, text Example 8): 39.70 μm
Compound: NC(=O)N1c2ccccc2C=Cc2ccccc21 [CBZ, carbamazepine]
aqueous solubility [1]: 61 µg/mL (≈ 258 µM)

Compound: bovine insulin [Bulk insulin]
Mean Particle Size (μm) ([2]; Table 3): 14.24 μm | A-21 desamido insulin (percent) ([3]; Table 3): 3.03% | percentage of A-21 desamido in the samples ([3]; 12 weeks): 2.61 percentage | percentage of A-21 desamido in the samples ([3]; 24 weeks): 2.72 percentage | percentage of A-21 desamido in the samples ([3]; Initial): 2.46 percentage | Covalent Insulin Dimer (percent) ([4]; Table 3): 0.25% | percentage of covalent insulin dimer in the samples ([4]; 12 weeks): 1.18 percentage | percentage of covalent insulin dimer in the samples ([4]; 24 weeks): 1.15 percentage | percentage of covalent insulin dimer in the samples ([4]; Initial): 0.5 percentage

Compound: C#C[C@]1(O)CC[C@H]2[C@@H]3CCC4=Cc5oncc5C[C@]4(C)[C@H]3CC[C@@]21C [Danazol]
danazol dissolved (Dissolution study; FeSSIF media, 60 minutes): 21% | danazol dissolved (Dissolution study; SLS 0.75%/Tris 1.21% media, 5 minutes): Approximately 53% | danazol dissolved (Dissolution study; SLS 0.75%/Tris 1.21% media, 60 minutes): about 88% | Average Contact Angle (S.D.) ([5]; listed as Bulk Danazol): 64.3 (1.1)^2 ° | Average Contact Angle (S.D.) ([5]; listed as bulk micronized danazol): 64.3 ° | BET specific surface area ([6]; Examples 4, 5, 8): 0.52 m2/g | Specific Surface Area (m^2/g) ([6]; Table 14 and text Example 30): 0.52 m^2/g | M 10(μm) ([2]; dry powders, Table 14): 7.28 μm | M 90(μm) ([2]; dry powders, Table 14): 51.78 μm | M 50(μm) ([2]; dry powders, Table 14 and text Example 30): 23.10 μm
